From ChEMBL document CHEMBL4725255, “Broad assessment of bioactivity of a collection of spiroindane pyrrolidines through "cell painting"” (Bioorg Med Chem, 2020)
Active and inactive are the calls of the source. The calls are words filed in the database; no cut-off is given here.

Tested on: U2OS
Test: Cytotoxicity against human U-2 OS cells assessed as change in cell morphology incubated for 24 hrs at […] measured after various levels of staining by micro XL microscopic-imaging analysis
Assay type: functional, cell-based

N#CC1Cc2ccccc2C12CCCN2 (stereo in doubt; 1)
Activity: Active

N#CC1Cc2ccccc2C12CCCN2 (stereo in doubt; 14)
Activity: inactive

COc1ccc(-c2ccc3c(c2)C2(CCCN2)C(C#N)C3)cc1 (stereo not given)
Activity: inactive

N#C[C@@H]1C[C@H]2[C@H]3[C@@H]1C=C[C@]32C1=NCCC1
Activity: Active

COCCOC(=O)N1CCCC12CCc1ccc(C#CCO)cc12 (stereo not given)
Activity: Active
